Reference: US20150352100A1, “USE OF SELECTIVE DELTA-OPIOID RECEPTOR ANTAGONISTS AND SPECIFIC SENSORY RECEPTOR LIGANDS” (priority 2013, published 2015)
“Also recorded” adds a separate entry of the source.

How the values were obtained:
[1] = test system: primary human cultured fibroblasts; test: In-vitro wound scratch model, wound closure/migration; type: cell-based; settings: for wound closure/migration, gap closure after 24 h: FIG. 16a, compared to control cells in DMSO diluent; for scratch wound closure after 24 h, remaining gap: FIG. 16b, all opioid antagonists 100 nM, compared to control without any antagonist
Procedure: All opioid antagonists were used in a concentration of 100 nM.
The stimulation of wound closure in fibroblasts by TGF-beta1 is not surprising. However, the stimulation by the DOR-Antagonist Naltrindole was not expected. In an additional experiment we tested the effect of various specific opioid receptor antagonists on the wound closure/migration of human primary fibroblasts using the in-vitro wound scratch assay.

[2] = target: T1, TAS2R14 (Homo sapiens, UniProt Q9NYV8); test: Calcium imaging (Fluo4-AM) of keratinocytes with TAS2R14 ligands; type: cell-based; settings: for intracellular free calcium (fluorescence of fluo4): bath-application of 1 mM, primary keratinocytes and N/TERT cells
T1 construct: This has allowed functional studies of TAS2R14 to be carried out in a native setting; endogenous in cells; host or cells: human primary keratinocytes and N/TERT immortalised human keratinocytes
T1 sequence (Q9NYV8 1-317): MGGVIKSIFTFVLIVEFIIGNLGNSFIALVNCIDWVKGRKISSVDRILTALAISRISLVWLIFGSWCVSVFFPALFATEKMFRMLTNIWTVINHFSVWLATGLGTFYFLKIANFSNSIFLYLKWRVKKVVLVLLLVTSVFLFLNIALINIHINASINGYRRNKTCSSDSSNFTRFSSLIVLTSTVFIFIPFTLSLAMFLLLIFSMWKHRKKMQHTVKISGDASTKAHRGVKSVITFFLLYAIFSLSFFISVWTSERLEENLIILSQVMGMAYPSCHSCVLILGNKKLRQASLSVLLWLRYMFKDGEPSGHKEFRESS
Procedure: (§1) Maximal increases in fluorescence were generated in each recording by addition of the ionophore ionomycin at 1 μM, and calcium responses were calculated as percentages compared to maximal ionomycin signal.

[3] = test system: TAS2R14; test: as above; type: cell-based, human; settings: for calcium response: in the presence of 100 μM suramin, 1 mM thujone, FFA in N/TERT cells, n=4; for effect of blocker on calcium responses to thujone and FFA: human skin cells, suramin 100 μM; for effect of blocker on calcium response to thujone: keratinocytes
Procedure: as §1

[4] = test system: 6 mm punch wounds on the back of mice; test: In vivo wound healing, 6 mm punch wounds, topical cream; settings: 1% w/w cream on wounds twice every day; for wound healing (mean healing rate, macroscopic and microscopic): 10 mice per group, vs placebo
Procedure: The effects of selective DOR antagonist are tested in animal models of wound healing, preferably in mice, to determine whether a selective DOR antagonist improves the quality, rate or extent of wound healing.
In the present example, male mice of 3-4 months old were grouped into 5 groups and 10 in each group. Before experiment, mice are shaved one day before. Pentothal was used for anesthesia before experiments. Seven days experiments are used. Four wounds are made by cutting 6 mm diameter and 3 cm apart. Day 1 wound #1 for 7 day wound, Day 3 wound #2 for 5 day wound, Day 5 wound #3 for 3 day wound, Day 7 wound #4 for 1 day wound, Day 8 mice are sacrifice. […] At the end of experiments on Day 8, the biopsies will be taken from the mice and fixed in 4% formaldehyde and embedded in paraffin block.

[5] = test system: Erk phosphorylation (ERK1/2); test: pERK activation protocol (western blot, anti-phospho ERK1/2) in primary keratinocytes; type: cell-based, human
Procedure: Primary keratinocytes were grown to 70% and replaced with supplement free medium 16-24 hours before the experiments. The strongly stimulating supplement (25 mg/l bovine pituitary extract and 2.5 ug/l epidermal growth factor, EGF) in complete KFSM (Gibco) medium was used as positive control. Cells were exposed to SNC 80 for 15 min, DMSO (blank control) 15 min, or FCS/complete K-SFM for 30 min at 37° C. […] Cells were lysed in 100 μl RIPA buffer and cell lysates frozen in liquid nitrogen.
Equal amount of protein were separated by electrophoresis over 10% polyacrylamid gels followed by protein transfer onto nitrocellulose membrane. Blots were transferred to primary antibody solution (anti-phospho ERK1/2 in 5% BSA/TBS-T) and incubated at 4° C. over night. After appropriate washing in TBS-T blots were incubated in secondary antibody (anti-rabbit Alexa-680 in 5% milk/TBS-T) for 45 min at room temperature in dark. Blots were washed 3× in TBS-T protected from light. Blots were imaged with the IR imager in 700 nm channel in a scan at 169 μm resolution.

[6] = test system: DOR-mRNA expression; test: Semiquantification of DOR mRNA by real time PCR in cultured human primary skin cells; type: cell-based
Excerpt: A: Semiquantification of DOR mRNA by Real Time PCR
It is important to mention, that human cultured melanocytes and keratinocytes express more MOR than DOR mRNA. However, fibroblasts express more DOR than MOR mRNA.

[7] = test system: DOR protein expression; test: Western blot analysis of DOR protein expression in cultured human skin cells; type: cell-based
Excerpt: B: Protein Expression of DOR by Western Blot Analysis: […]

[8] = cultured human primary keratinocytes
[9] = human cultured fibroblasts, 24 h exposure
[10] = human cultured melanocytes, 6 h exposure
[11] = primary human cultured keratinocytes

## TGFβ1: known stimulator of wound closure/migration
[1]
  wound closure/migration, gap closure after 24 h: significant improvement of wound closure/migration
[1]; listed as TGF-beta1
  wound closure/migration, gap closure after 24 h: significant faster migration and wound closure

## O=C(O)c1ccccc1Nc1cccc(C(F)(F)F)c1 [FFA, flufenamic acid]
[2]
  intracellular free calcium (fluorescence of fluo4): robust increases in intracellular free calcium
[3]
  calcium response: 31.0±7.0 percentage of ionomycin signal

## Oc1ccc2c3c1O[C@H]1c4[nH]c5ccccc5c4C[C@@]4(O)[C@@H](C2)N(CC2CC2)CC[C@]314 [Naltrindole, naltrindole]
[1]
  wound closure/migration, gap closure after 24 h: significant faster migration and wound closure; also recorded: significant improvement of wound closure/migration
[4]
  wound healing (mean healing rate, macroscopic and microscopic): significantly improved wound healing at days 5 and 7
[4]; listed as Naltrindol
  wound healing (mean healing rate, macroscopic and microscopic): significant better healing
[4]; compared to placebo
  improvement of wound healing: 3 days
[5]; MAP kinase activation assay for selecting DOR antagonists
  concentration that promotes phosphorylation of MAP kinase such as Erk: less than or equal to 10 μM
[5]; primary human keratinocytes
  Erk phosphorylation (MAPK pathway ERK1/2): strong stimulating effect; also recorded: massive activation of Erk
[6]; cultured human primary fibroblasts
  DOR-mRNA expression: increases significantly
[6]; [8]
  DOR-mRNA expression: increases significantly
[6]; cultured human primary melanocytes
  DOR-mRNA expression: increases significantly
[6]; cultured human primary melanocytes, co-incubation of Naltrindole and agonist SNC-80
  DOR-mRNA expression: increases significantly
[6]; human keratinocytes and melanocytes pre-incubated for 3 hours with 10 μM Naltrindole, then exposed to SNC-80
  mRNA of DOR: massively up-regulated
[7]; [9]
  DOR protein expression: important upregulation
[7]; [10]
  DOR protein expression: important up-regulation; also recorded: upregulates
[7]; human cultured melanocytes, combination of antagonist Naltrindole and agonist SNC-80
  DOR protein expression: can upregulate the protein as well; also recorded: can up-regulate the protein as well
[7]; [11]
  DOR protein expression: important up-regulation; also recorded: up-regulates

## COC(=O)/C=C/C(=O)N[C@@H]1CC[C@@]2(O)[C@H]3Cc4ccc(O)c5c4[C@@]2(CCN3CC2CC2)[C@H]1O5 [irreversible blocker of MOR (>KOR>>DOR), beta-Funaltrexamine]
[1]
  scratch wound closure after 24 h, remaining gap: no significant effects

## Dalargin
[4]
  wound healing (mean healing rate, macroscopic and microscopic): very significant advantage of a specific DOR antagonist over

## Cc1ccc(C(=O)Nc2ccc(S(=O)(=O)O)c3cc(S(=O)(=O)O)cc(S(=O)(=O)O)c23)cc1NC(=O)c1cccc(NC(=O)Nc2cccc(C(=O)Nc3cc(C(=O)Nc4ccc(S(=O)(=O)O)c5cc(S(=O)(=O)O)cc(S(=O)(=O)O)c45)ccc3C)c2)c1 [suramin]
[3]
  effect of blocker on calcium responses to thujone and FFA: significantly attenuated
[3]; listed as Suramin
  effect of blocker on calcium responses to thujone and FFA: attenuates significantly

## COc1cccc2c1[C@]13CCN(CC4CC4)[C@H](C2)[C@]1(OC)CCC(=O)C3 [Cyprodime]
[1]
  scratch wound closure after 24 h, remaining gap: no significant effects

## O=C1CN(/N=C/c2ccc(-c3ccc([N+](=O)[O-])cc3)o2)C(O)=N1 [Dantrolene]
[3]
  effect of blocker on calcium response to thujone: significantly attenuate

## C1CCC[C@H]2CCCN3CC[C@@H](CCCCCC[C@@H]4CCCN5CC[C@@H](CC1)O[C@@H]45)O[C@@H]23 [Xestospongin, Xestospongin C]
[3]
  effect of blocker on calcium response to thujone: significantly attenuated; also recorded: highly significant inhibition

## C=CCN1C[C@H](C)N([C@H](c2ccc(C(=O)N(CC)CC)cc2)c2cccc(OC)c2)C[C@H]1C [SNC-80]
[1]
  wound closure/migration, gap closure after 24 h: does not seem to have any stimulation of migration; also recorded: does not seem to change migration
[4]
  wound healing (mean healing rate, macroscopic and microscopic): very significant advantage of a specific DOR antagonist over
[5]; primary human keratinocytes
  effect on Naltrindole-stimulated Erk phosphorylation: antagonized
[6]; [8]
  DOR-mRNA expression: increases significantly
[7]; [9]
  DOR protein expression: some up- and downregulation
[7]; [10]
  DOR protein expression: not
[7]; [11]
  DOR protein expression: important up-regulation; also recorded: up-regulates

## Oc1ccc2c3c1O[C@H]1c4oc5ccccc5c4C[C@@]4(O)[C@@H](C2)N(CC2CC2)CC[C@]314 [Naltriben]
[1]
  scratch wound closure after 24 h, remaining gap: more effective than the mixed DOR1/2 antagonist Naltrindole and much more effective than the DOR1 antagonist BNTX

## CC(C)[C@]12CC(=O)[C@H](C)[C@H]1C2 [thujone, α-thujone]
[2]
  intracellular free calcium (fluorescence of fluo4): robust increases in intracellular free calcium
[2]; control without suramin, 1 mM thujone, FFA in N/TERT cells, n=4
  calcium response: 84.2±5.5 percentage of ionomycin signal
[3]
  calcium response: 34.4±8.2 percentage of ionomycin signal

## O=C1CC[C@@]2(O)[C@H]3Cc4ccc(O)c5c4[C@@]2(CCN3CC2CC2)[C@H]1O5 [Naltrexone]
[4]
  wound healing (mean healing rate, macroscopic and microscopic): not effective

## Ryanodine
[3]
  effect of blocker on calcium response to thujone: significantly attenuate
